Laboratory results reported in patent US8802597B2, “Herbicidal pyrimidines” (E I du Pont de Nemours and Company, priority 2003, dated 2014).
Read-outs that look alike come from different tables or passages of the source.

What was measured:
Format in all cases: in vivo
[1] = test system: barnyardgrass (Echinochloa crus-galli); assay: Test A pre/postemergence; details: for pest or weed control at 125 g/ha / pest or weed control at 500 g/ha: Echinochloa crus-galli, 240 h, read-out: Plant response rating, Barnyardgrass
Procedure, shortened: (§1)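 Seeds sown in loam–sand blend received a preemergence directed soil spray of test chemical in non-phytotoxic solvent with surfactant; same-formulation postemergence spray given concurrently to plants 2–10 cm tall at 1- to 2-leaf stage. Greenhouse ~ten days, then visual injury rating versus untreated controls, 0 (no effect) to 100 (complete control).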

[2] = test system: giant foxtail (Setaria faberi); assay: Test A pre/postemergence; details: for pest or weed control at 125 g/ha / pest or weed control at 500 g/ha: Setaria faberi, 240 h, read-out: Plant response rating, Foxtail, Giant
Procedure, shortened: as §1

[3] = test system: bermudagrass (Cynodon dactylon); assay: Test C pre/postemergence; details: Postemergence
Procedure, shortened: (§2)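 Greenhouse herbicide screen, visual readout. Compound in solvent/surfactant applied preemergence at planting or postemergence to 1- to 4-leaf plants; assessed at 12–14 days on a 0–100 control scale.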

[4] = test system: cocklebur (Xanthium strumarium); assay: Test C pre/postemergence; details: Postemergence
Procedure, shortened: as §2

[5] = test system: corn (Zea mays); assay: Test C pre/postemergence; details: Postemergence
Procedure, shortened: as §2

[6] = test system: crabgrass (Digitaria sanguinalis); assay: Test C pre/postemergence; details: Postemergence
Procedure, shortened: as §2

[7] = test system: goosegrass (Eleusine indica); assay: Test C pre/postemergence; details: Postemergence
Procedure, shortened: as §2

[8] = test system: lambsquarters (Chenopodium album); assay: Test C pre/postemergence; details: Postemergence
Procedure, shortened: as §2

[9] = test system: velvetleaf (Abutilon theophrasti); assay: Test C pre/postemergence; details: Postemergence
Procedure, shortened: as §2

[10] = Postemergence, 125 g ai/ha, 0 to 100 scale (0 no effect, 100 complete control)
[11] = Postemergence, 500 g ai/ha, 0 to 100 scale (0 no effect, 100 complete control)
[12] = Preemergence, 125 g ai/ha, 0 to 100 scale where 0 is no effect and 100 is complete control, approximately ten days
[13] = Preemergence, 500 g ai/ha, 0 to 100 scale where 0 is no effect and 100 is complete control, approximately ten days
[14] = 125 g ai/ha, scale 0 to 100 (0 no effect, 100 complete control)
[15] = post-emergence, Postemergence, 125 g ai/ha, 0 to 100 scale (0 no effect, 100 complete control)
[16] = post-emergence, Postemergence, 500 g ai/ha, 0 to 100 scale (0 no effect, 100 complete control)
[17] = pre-emergence, Preemergence, 125 g ai/ha, 0 to 100 scale where 0 is no effect and 100 is complete control, approximately ten days
[18] = pre-emergence, Preemergence, 500 g ai/ha, 0 to 100 scale where 0 is no effect and 100 is complete control, approximately ten days

Structure (SMILES): Nc1nc(-c2ccc(Cl)cc2)nc(C(=O)O)c1Br [Compound 88]
- Plant response rating, Barnyardgrass [1, 10]: 50
- Plant response rating, Barnyardgrass [1, 11]: 85
- Plant response rating, Barnyardgrass [1, 12]: 10
- Plant response rating, Barnyardgrass [1, 13]: 55
- Plant response rating, Foxtail, Giant [2, 10]: 80
- Plant response rating, Foxtail, Giant [2, 11]: 90
- Plant response rating, Foxtail, Giant [2, 12]: 10
- Plant response rating, Foxtail, Giant [2, 13]: 50
- Plant response rating (scale of 0 to 100), Bermudagrass ([3]; 31 g ai/ha): 50
- Bermudagrass plant response rating ([3]; 62 g ai/ha, scale 0 to 100 (0 no effect, 100 complete control)): 70
- Bermudagrass plant response rating [3, 14]: 70
- Plant response rating, Bermudagrass ([3]; 250 g ai/ha, scale 0 to 100): 80
- Plant response rating (scale of 0 to 100), Cocklebur ([4]; 31 g ai/ha): 90
- Plant response rating (scale of 0 to 100), Cocklebur ([4]; 62 g ai/ha): 90
- Cocklebur plant response rating [4, 14]: 90
- Plant response rating, Cocklebur ([4]; 250 g ai/ha, scale 0 to 100): 90
- Plant response rating (scale of 0 to 100), Corn ([5]; 31 g ai/ha): 0
- Plant response rating (scale of 0 to 100), Corn ([5]; 62 g ai/ha): 0
- Plant response rating, Corn ([5]; 250 g ai/ha, scale 0 to 100): 30
- Plant response rating (scale of 0 to 100), Crabgrass ([6]; 31 g ai/ha): 75
- Plant response rating (scale of 0 to 100), Crabgrass ([6]; 62 g ai/ha): 80
- Crabgrass plant response rating [6, 14]: 80
- Plant response rating, Crabgrass ([6]; 250 g ai/ha, scale 0 to 100): 85
- Plant response rating (scale of 0 to 100), Goosegrass ([7]; 31 g ai/ha): 50
- Plant response rating (scale of 0 to 100), Goosegrass ([7]; 62 g ai/ha): 75
- Goosegrass plant response rating [7, 14]: 75
- Plant response rating, Goosegrass ([7]; 250 g ai/ha, scale 0 to 100): 80
- Plant response rating (scale of 0 to 100), Lambsquarters ([8]; 31 g ai/ha): 90
- Plant response rating (scale of 0 to 100), Lambsquarters ([8]; 62 g ai/ha): 95
- Lambsquarters plant response rating [8, 14]: 95
- Plant response rating, Lambsquarters ([8]; 250 g ai/ha, scale 0 to 100): 100
- Plant response rating (scale of 0 to 100), Velvetleaf ([9]; 31 g ai/ha): 85
- Plant response rating (scale of 0 to 100), Velvetleaf ([9]; 62 g ai/ha): 90
- Velvetleaf plant response rating [9, 14]: 95
- Plant response rating, Velvetleaf ([9]; 250 g ai/ha, scale 0 to 100): 95

Structure (SMILES): CCOC(=O)c1nc(-c2ccc(Br)cc2)nc(N)c1Cl [Compound 94, ethyl 6-amino-2-(4-bromophenyl)-5-chloro-4-pyrimidinecarboxylate]
- pest or weed control at 125 g/ha [1, 15]: 30%
- pest or weed control at 500 g/ha [1, 16]: 60%
- pest or weed control at 125 g/ha [1, 17]: 5%
- pest or weed control at 500 g/ha [1, 18]: 40%
- pest or weed control at 125 g/ha [2, 15]: 45%
- pest or weed control at 500 g/ha [2, 16]: 65%
- pest or weed control at 125 g/ha [2, 17]: 20%
- pest or weed control at 500 g/ha [2, 18]: 40%
- pest or weed control at 16 g/ha ([3]; Cynodon dactylon, post-emergence, 16 g ai/ha, read-out: Plant response rating (scale of 0 to 100), Bermudagrass): 60%
- pest or weed control at 31 g/ha ([3]; Cynodon dactylon, post-emergence, 31 g ai/ha, read-out: Plant response rating (scale of 0 to 100), Bermudagrass): 70%
- pest or weed control at 62 g/ha ([3]; Cynodon dactylon, post-emergence, 62 g ai/ha, scale 0 to 100 (0 no effect, 100 complete control), read-out: Bermudagrass plant response rating): 75%
- pest or weed control at 125 g/ha ([3]; Cynodon dactylon, post-emergence, 125 g ai/ha, scale 0 to 100 (0 no effect, 100 complete control), read-out: Bermudagrass plant response rating): 80%
- pest or weed control at 16 g/ha ([4]; Xanthium strumarium, post-emergence, 16 g ai/ha, read-out: Plant response rating (scale of 0 to 100), Cocklebur): 75%
- pest or weed control at 31 g/ha ([4]; Xanthium strumarium, post-emergence, 31 g ai/ha, read-out: Plant response rating (scale of 0 to 100), Cocklebur): 80%
- pest or weed control at 62 g/ha ([4]; Xanthium strumarium, post-emergence, 62 g ai/ha, read-out: Plant response rating (scale of 0 to 100), Cocklebur): 90%
- pest or weed control at 125 g/ha ([4]; Xanthium strumarium, post-emergence, 125 g ai/ha, scale 0 to 100 (0 no effect, 100 complete control), read-out: Cocklebur plant response rating): 100%
- Corn plant response rating (crop injury, 0 = no effect, 100 = complete kill) at 16 g/ha ([5]; Zea mays, post-emergence, 16 g ai/ha, read-out: Plant response rating (scale of 0 to 100), Corn): 10%
- Corn plant response rating (crop injury, 0 = no effect, 100 = complete kill) at 31 g/ha ([5]; Zea mays, post-emergence, 31 g ai/ha, read-out: Plant response rating (scale of 0 to 100), Corn): 35%
- Corn plant response rating (crop injury, 0 = no effect, 100 = complete kill) at 62 g/ha ([5]; Zea mays, post-emergence, 62 g ai/ha, read-out: Plant response rating (scale of 0 to 100), Corn): 35%
- Corn plant response rating (crop injury, 0 = no effect, 100 = complete kill) at 125 g/ha ([5]; Zea mays, post-emergence, 125 g ai/ha, scale 0 to 100 (0 no effect, 100 complete control), read-out: Corn plant response rating): 60%
- pest or weed control at 16 g/ha ([6]; Digitaria sanguinalis, post-emergence, 16 g ai/ha, read-out: Plant response rating (scale of 0 to 100), Crabgrass): 70%
- pest or weed control at 31 g/ha ([6]; Digitaria sanguinalis, post-emergence, 31 g ai/ha, read-out: Plant response rating (scale of 0 to 100), Crabgrass): 80%
- pest or weed control at 62 g/ha ([6]; Digitaria sanguinalis, post-emergence, 62 g ai/ha, read-out: Plant response rating (scale of 0 to 100), Crabgrass): 85%
- pest or weed control at 125 g/ha ([6]; Digitaria sanguinalis, post-emergence, 125 g ai/ha, scale 0 to 100 (0 no effect, 100 complete control), read-out: Crabgrass plant response rating): 85%
- pest or weed control at 16 g/ha ([7]; Eleusine indica, post-emergence, 16 g ai/ha, read-out: Plant response rating (scale of 0 to 100), Goosegrass): 35%
- pest or weed control at 31 g/ha ([7]; Eleusine indica, post-emergence, 31 g ai/ha, read-out: Plant response rating (scale of 0 to 100), Goosegrass): 60%
- pest or weed control at 62 g/ha ([7]; Eleusine indica, post-emergence, 62 g ai/ha, read-out: Plant response rating (scale of 0 to 100), Goosegrass): 80%
- pest or weed control at 125 g/ha ([7]; Eleusine indica, post-emergence, 125 g ai/ha, scale 0 to 100 (0 no effect, 100 complete control), read-out: Goosegrass plant response rating): 80%
- pest or weed control at 16 g/ha ([8]; Chenopodium album, post-emergence, 16 g ai/ha, read-out: Plant response rating (scale of 0 to 100), Lambsquarters): 95%
- pest or weed control at 31 g/ha ([8]; Chenopodium album, post-emergence, 31 g ai/ha, read-out: Plant response rating (scale of 0 to 100), Lambsquarters): 95%
- pest or weed control at 62 g/ha ([8]; Chenopodium album, post-emergence, 62 g ai/ha, read-out: Plant response rating (scale of 0 to 100), Lambsquarters): 95%
- pest or weed control at 125 g/ha ([8]; Chenopodium album, post-emergence, 125 g ai/ha, scale 0 to 100 (0 no effect, 100 complete control), read-out: Lambsquarters plant response rating): 100%
- pest or weed control at 16 g/ha ([9]; Abutilon theophrasti, post-emergence, 16 g ai/ha, read-out: Plant response rating (scale of 0 to 100), Velvetleaf): 75%
- pest or weed control at 31 g/ha ([9]; Abutilon theophrasti, post-emergence, 31 g ai/ha, read-out: Plant response rating (scale of 0 to 100), Velvetleaf): 90%
- pest or weed control at 62 g/ha ([9]; Abutilon theophrasti, post-emergence, 62 g ai/ha, read-out: Plant response rating (scale of 0 to 100), Velvetleaf): 95%
- pest or weed control at 125 g/ha ([9]; Abutilon theophrasti, post-emergence, 125 g ai/ha, scale 0 to 100 (0 no effect, 100 complete control), read-out: Velvetleaf plant response rating): 95%
